Laboratory results: patent US8987314B2, “Amide, urea or sulfone amide linked benzothiazole inhibitors of endothelial lipase” (Bristol-Myers Squibb Company, priority 2012, dated 2015)

Columns and labels:
[1] = target: Endothelial lipase (EL) (Homo sapiens (Human), UniProt Q9Y5X9); experiment: EL assay: endothelial lipase activity with fluorescent substrate A10070 in DMPG vesicles; type: biochemical
Procedure, shortened: (§1)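 Substrate A10070 sits in sonicated DMPG vesicles at 0.11 mole fraction. Lipase and compound preincubated 30 min, 37° C, in HEPES pH 8.0 buffer with CaCl2.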

[2] = target: hepatic lipase (HL) (Homo sapiens (Human), UniProt P11150); experiment: HL assay: hepatic lipase activity with fluorescent substrate A10070 in DMPG vesicles; type: biochemical
Sequence of hepatic lipase (HL) (P11150 23-499, species assumed): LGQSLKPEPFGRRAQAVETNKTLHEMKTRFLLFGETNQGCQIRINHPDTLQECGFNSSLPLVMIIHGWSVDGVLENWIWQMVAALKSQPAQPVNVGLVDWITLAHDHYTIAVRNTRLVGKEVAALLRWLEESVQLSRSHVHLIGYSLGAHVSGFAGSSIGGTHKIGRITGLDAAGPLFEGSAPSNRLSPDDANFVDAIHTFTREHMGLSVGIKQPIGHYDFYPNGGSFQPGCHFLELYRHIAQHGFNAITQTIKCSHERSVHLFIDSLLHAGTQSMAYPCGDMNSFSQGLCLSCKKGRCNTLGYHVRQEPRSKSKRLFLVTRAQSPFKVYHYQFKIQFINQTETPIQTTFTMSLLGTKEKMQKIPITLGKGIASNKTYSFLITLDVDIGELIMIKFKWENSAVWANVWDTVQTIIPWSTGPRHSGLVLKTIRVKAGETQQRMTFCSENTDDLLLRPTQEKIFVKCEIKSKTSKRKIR
Procedure, shortened: as §1

Sequence of Endothelial lipase (EL) (Q9Y5X9 21-500): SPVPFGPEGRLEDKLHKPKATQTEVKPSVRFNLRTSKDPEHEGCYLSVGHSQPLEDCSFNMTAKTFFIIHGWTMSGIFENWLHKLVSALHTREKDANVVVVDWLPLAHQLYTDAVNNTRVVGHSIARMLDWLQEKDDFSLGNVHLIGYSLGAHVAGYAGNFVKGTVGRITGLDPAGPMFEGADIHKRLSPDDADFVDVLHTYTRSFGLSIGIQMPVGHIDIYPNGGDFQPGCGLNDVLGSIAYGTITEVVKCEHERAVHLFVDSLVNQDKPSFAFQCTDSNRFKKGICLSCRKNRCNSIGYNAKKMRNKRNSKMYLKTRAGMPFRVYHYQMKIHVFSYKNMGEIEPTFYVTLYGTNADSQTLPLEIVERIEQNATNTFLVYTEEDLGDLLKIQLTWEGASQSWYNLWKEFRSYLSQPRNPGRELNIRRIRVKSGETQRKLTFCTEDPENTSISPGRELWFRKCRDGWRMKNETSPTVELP

| SMILES | IC50 [1] | IC50 [2] |
| --- | --- | --- |
| CC(=O)Nc1ccc(-c2ccc3nc(C(C(=O)NCCS(N)(=O)=O)S(=O)(=O)Cc4ccc(C(F)(F)F)cc4)sc3c2)cc1 (stereo not shown) [Example B287, 2-[6-(4-acetamidophenyl)-1,3-benzothiazol-2-yl]-N-(2-sulfamoylethyl)-2-{[4-(trifluoromethyl)phen-yl]methanesulfonyl}a-cetamide] | 0.007 µM | 0.09 µM |
| COCCN(C)C(=O)c1ccc(-c2ccc3nc(C(C(=O)NCCS(N)(=O)=O)S(=O)(=O)Cc4ccc(C(F)(F)F)cc4)sc3c2)cc1 (stereo not shown) [Example B288, N-(2-methoxyethyl)-N-methyl-4-(2-{[(2-sulfamoylethyl)carbamoyl][4-(trifluoromethyl)phen-yl]methanesulfonylmethyl}-1,3-benzothiazol-6-yl)ben-zamide] | 0.0008 µM | 0.123 µM |
| COCCN(C)C(=O)c1ccc(-c2ccc3nc(C(C(=O)NCCS(N)(=O)=O)S(=O)(=O)Cc4ccc(OC(F)(F)F)cc4)sc3c2)cc1 (stereo not shown) [Example B289, N-(2-methoxyethyl)-N-methyl-4-(2-{[(2-sulfamoyl-ethyl)carbamoyl][4-(trifluoromethoxy)phen-yl]methanesulfonyl-methyl}-1,3-benzothiazol-6-yl)benzamide] | 0.0031 µM | 0.0217 µM |
| COCCN(C)C(=O)c1ccc(-c2ccc3nc(C(C(=O)NCCS(N)(=O)=O)S(=O)(=O)CCC(F)(F)F)sc3c2)cc1 (stereo not shown) [Example B290, N-(2-methoxyethyl)-N-methyl-4-(2-{[(2-sulfa-moylethyl)carbamoyl](3,3,3-trifluoropropane-sulfonyl)methyl}-1,3-benzothiazol-6-yl)ben-zamide] | 0.0121 µM | 0.115 µM |
| COCCN(C)C(=O)c1ccc(-c2ccc3nc(C(C(=O)NCCS(N)(=O)=O)S(=O)(=O)CC4CC4)sc3c2)cc1 (stereo not shown) [Example B291, 4-(2-{cyclopropylmethane-sulfonyl[(2-sulfamoyl-ethyl)carbamoyl]methyl}-1,3-benzothiazol-6-yl)-N-(2-methoxyethyl)-N-methylbenzamide] | 0.0007 µM | 0.0352 µM |
| COCCNC(=O)c1ccc(-c2ccc3nc(C(C(=O)NCCS(N)(=O)=O)S(=O)(=O)Cc4ccc(Cl)c(Cl)c4)sc3c2)cc1 (stereo not shown) [Example B292, 4-{2-[(3,4-dichlorophen-yl)methanesulfonyl[(2-sulfa-moylethyl)carbamoyl]meth-yl]-1,3-benzothiazol-6-yl}-N-(2-methoxyethyl)ben-zamide] | 0.0202 µM | 0.112 µM |
| NS(=O)(=O)CCNC(=O)C(c1nc2ccc(-c3ccc(C(=O)N4CCOCC4)cc3)cc2s1)S(=O)(=O)Cc1ccc(C(F)(F)F)cc1 (stereo not shown) [Example B293, 2-{6-[4-(morpholine-4-carbonyl)phenyl]-1,3-benzothiazol-2-yl}-N-(2-sulfamoylethyl)-2-{[4-(trifluoromethyl)phen-yl]methanesulfonyl}a-cetamide] | 0.146 µM | 0.329 µM |
| COCCNC(=O)c1ccc(-c2ccc3nc(C(C(=O)NCCS(N)(=O)=O)S(=O)(=O)Cc4cc(Cl)cc(Cl)c4)sc3c2)cc1 (stereo not shown) [Example B295, 4-{2-[(3,5-dichlorophen-yl)methanesulfonyl[(2-sulfa-moylethyl)carbamoyl]meth-yl]-1,3-benzothiazol-6-yl}-N-(2-methoxyethyl)ben-zamide] | 0.0209 µM | 0.14 µM |
| NS(=O)(=O)CCNC(=O)C(c1nc2ccc(-c3ccc(C(=O)N4CCOCC4)cc3)cc2s1)S(=O)(=O)Cc1ccc(F)cc1 (stereo not shown) [Example B296, 2-[(4-fluorophenyl)methanesulfonyl]-2-{6-[4-(morpholine-4-carbon-yl)phenyl]-1,3-benzothiazol-2-yl}-N-(2-sulfamoyleth-yl)acetamide] | 0.0029 µM | 0.267 µM |
| NS(=O)(=O)CCNC(=O)C(c1nc2ccc(-c3ccc(C(=O)N4CCOCC4)cc3)cc2s1)S(=O)(=O)Cc1ccc(Cl)c(Cl)c1 (stereo not shown) [Example B297, 2-[(3,4-dichlorophen-yl)methanesulfonyl]-2-{6-[4-(morpholine-4-carbon-yl)phenyl]-1,3-benzothiazol-2-yl}-N-(2-sulfamoylethyl)a-cetamide] | 0.0053 µM | 0.556 µM |
| COC1CN(C(=O)c2ccc(-c3ccc4nc(C(C(=O)NCCS(N)(=O)=O)S(=O)(=O)Cc5ccc(C(F)(F)F)cc5)sc4c3)cc2)C1 (stereo not shown) [Example B299] | 0.0056 µM | 0.0742 µM |
| COC1CN(C(=O)c2ccc(-c3ccc4nc(C(C(=O)NCCS(N)(=O)=O)S(=O)(=O)Cc5ccc(OC(F)(F)F)cc5)sc4c3)cc2)C1 (stereo not shown) [Example B300, 2-{6-[4-(3-methoxy-azetidine-1-carbonyl)phen-yl]-1,3-benzothiazol-2-yl}-N-(2-sulfamoyl-ethyl)-2-{[4-(trifluoro-methoxy)phenyl]methane-sulfonyl}acetamide] | 0.0055 µM | 0.0851 µM |
| COC1CN(C(=O)c2ccc(-c3ccc4nc(C(C(=O)NCCS(N)(=O)=O)S(=O)(=O)CCC(F)(F)F)sc4c3)cc2)C1 (stereo not shown) [Example B301, 2-{6-[4-(3-methoxy-azetidine-1-carbonyl)phen-yl]-1,3-benzothiazol-2-yl}-N-(2-sulfamoyl-ethyl)-2-(3,3,3-trifluoro-propanesulfonyl)acetamide] | 0.0078 µM | 0.113 µM |
| COC1CN(C(=O)c2ccc(-c3ccc4nc(C(C(=O)NCCS(N)(=O)=O)S(=O)(=O)Cc5ccc(F)cc5)sc4c3)cc2)C1 (stereo not shown) [Example B302, 2-[(4-fluorophen-yl)methanesulfonyl]-2-{6-[4-(3-methoxyazetidine-1-carbonyl)phenyl]-1,3-benzothiazol-2-yl}-N-(2-sulfamoylethyl)acetamide] | 0.0072 µM | 0.052 µM |
| NS(=O)(=O)CCNC(=O)C(c1nc2ccc(-c3ccc4c(c3)CNC4=O)cc2s1)S(=O)(=O)Cc1ccc(OC(F)(F)F)cc1 (stereo not shown) [Example B303, 2-[6-(1-oxo-2,3-dihydro-1H-isoindol-5-yl)-1,3-benzothiazol-2-yl]-N-(2-sulfamoylethyl)-2-{[4-(trifluoromethoxy)phen-yl]methanesulfonyl)a-cetamide] | 0.0025 µM | 0.0512 µM |
| CO[C@H]1CCN(C(=O)c2ccc(-c3ccc4nc(C(C(=O)NCCS(N)(=O)=O)S(=O)(=O)CCC(F)(F)F)sc4c3)cc2)C1 (stereo partly drawn) [Example B304, 2-(6-{4-[(3S)-3-methoxy-pyrrolidine-1-carbonyl]phen-yl}-1,3-benzothiazol-2-yl)-N-(2-sulfamoyl-ethyl)-2-(3,3,3-trifluoro-propanesulfonyl)acetamide] | 0.0007 µM | 0.0166 µM |
| CS(=O)(=O)C(C(=O)NCCS(N)(=O)=O)c1nc2ccc(-c3ccccc3F)cc2s1 (stereo not shown) [Example B305, 2-[6-(2-fluorophenyl)-1,3-benzothiazol-2-yl]-2-methanesulfonyl-N-(2-sulfamoylethyl)acetamide] | 0.003 µM | 0.001 µM |
| COCCS(=O)(=O)C(C(=O)NCCS(N)(=O)=O)c1nc2ccc(-c3ccc(C(=O)N4CC[C@H](OC)C4)cc3)cc2s1 (stereo partly drawn) [Example B306, 2-(2-methoxyethane-sulfonyl)-2-(6-{4-[(3S)-3-methoxypyrrolidine-1-carbonyl]phenyl}-1,3-benzothiazol-2-yl)-N-(2-sulfamoylethyl)acetamide] | 0.0038 µM | 0.149 µM |
| COCCS(=O)(=O)C(C(=O)NCCS(N)(=O)=O)c1nc2cc(-c3ccc(F)nc3)ccc2s1 (stereo not shown) [Example B308, 2-[5-(6-fluoropyridin-3-yl)-1,3-benzothiazol-2-yl]-2-(2-methoxyethane-sulfonyl)-N-(2-sulfamoylethyl)acetamide] | 0.0013 µM | 0.194 µM |
| NS(=O)(=O)CCNC(=O)C(c1nc2cc(-c3ccc(F)nc3)ccc2s1)S(=O)(=O)Cc1ccc(OC(F)(F)F)cc1 (stereo not shown) [Example B309, 2-[5-(6-fluoropyridin-3-yl)-1,3-benzothiazol-2-yl]-N-(2-sulfamoylethyl)-2-{[4-(trifluoromethoxy)phen-yl]methanesulfonyl}a-cetamide] | 0.0005 µM | 0.067 µM |
| NS(=O)(=O)CCNC(=O)C(c1nc2cc(-c3ccc(F)nc3)ccc2s1)S(=O)(=O)Cc1ccc(F)cc1 (stereo not shown) [Example B310, 2-[(4-fluorophenyl)meth-anesulfonyl]-2-[5-(6-fluoropyridin-3-yl)-1,3-benzothiazol-2-yl]-N-(2-sulfamoylethyl)acetamide] | 0.001 µM | 0.0514 µM |
| NS(=O)(=O)CCNC(=O)C(c1nc2cc(-c3ccc(F)nc3)ccc2s1)S(=O)(=O)CCC(F)(F)F (stereo not shown) [Example B311, 2-[5-(6-fluoropyridin-3-yl)-1,3-benzothiazol-2-yl]-N-(2-sulfamoylethyl)-2-(3,3,3-trifluoropropane-sulfonyl)acetamide] | 0.0031 µM | 0.0242 µM |
| CC(C)S(=O)(=O)C(C(=O)NCCS(N)(=O)=O)c1nc2cc(-c3ccc(F)nc3)ccc2s1 (stereo not shown) [Example B312, 2-[5-(6-fluoropyridin-3-yl)-1,3-benzothiazol-2-yl]-2-(propane-2-sulfonyl)-N-(2-sulfamoylethyl)a-cetamide] | 0.0062 µM | 0.153 µM |
| NS(=O)(=O)CCNC(=O)C(c1nc2ccc(-c3ccc(F)nc3)cc2s1)S(=O)(=O)CCN1CCOCC1 (stereo not shown) [Example B313, 2-[6-(6-fluoropyridin-3-yl)-1,3-benzothiazol-2-yl]-2-[2-(morpholin-4-yl)ethanesulfonyl]-N-(2-sulfamoylethyl)acetamide] | 0.0108 µM | 0.106 µM |
| NS(=O)(=O)CCNC(=O)C(c1nc2ccc(-c3ccc(CO)cc3)cc2s1)S(=O)(=O)CCN1CCOCC1 (stereo not shown) [Example B314, 2-{6-[4-(hydroxymeth-yl)phenyl]-1,3-benzothiazol-2-yl}-2-[2-(morpholin-4-yl)ethanesulfonyl]-N-(2-sulfamoylethyl)acetamide] | 0.0161 µM | 0.0351 µM |
| NS(=O)(=O)CCNC(=O)C(c1nc2ccc(-c3cncnc3)cc2s1)S(=O)(=O)CCN1CCOCC1 (stereo not shown) [Example B315, 2-[2-(morpholin-4-yl)ethanesulfonyl]-2-[6-(pyrimidin-5-yl)-1,3-benzothiazol-2-yl]-N-(2-sulfamoylethyl)acetamide] | 0.0556 µM | 10 µM |
